Laboratory results as given in patent publication US20060276537A1, “Use of ladostigil for the treatment of multiple sclerosis” (priority 2005, published 2006).

Assays:
[1] = Body weight of the EAE mice (Table 7); type: in vivo
Text: These differences were statistically significant (p<0.000, Manova). According to the subsequent Post Hoc comparison (LSD), all the groups were different from the control (Table 7). […] On day 14, four days after the onset of the disease, sick mice lost an average of 2 g of weight. The average mean weight of GA-blocked mice was reduced by only 0.4 g. On day 23 the control group reached the lowest weight, 14.6 g.

[2] = system: chronic progressive EAE induced by pMOG35-55 in C57BL/6 mice; test: MOG-induced chronic progressive EAE in C57BL/6 mice, clinical scoring; type: in vivo; settings: GA blocking, dose 250 mg/kg, given with inoculum on day 0
Description: MOG (Myelin oligodendrocyte glycoprotein) is a member of the immunoglobulin superfamily expressed exclusively in CNS myelin. It is one of the most encephalitogenic proteins and is widely used to induce EAE in different rodent strains. In C57BL/6 mice, immunization with the MOG peptide pMOG35-55 in CFA induces chronic progressive EAE. Ladostigil was tested in this model in order to assess its ability to inhibit the disease.
EAE was induced by subcutaneous injection of encephalitogenic emulsion at a volume of 0.2 ml/mouse in the right flank. On the day of induction, pertussis toxin was injected intraperitoneally at a volume dose of 0.2 ml/mouse. The injection of the pertussis toxin was repeated after 48 hours. At the end of the experiment, 6-7 brains from control and the ladostigil groups were dissected and frozen at −70° C. for CHE (cholinesterase) determination and 6-7 brains were dissected and frozen for MAO (monoamine oxidase) determination. Before sacrifice, blood for ChE determination was taken on heparine, hemolysed 1/20 in 10 mM cold phosphate buffer pH=6.0 and stored at −70° C. until the assay.
90 female C57Bl/6 mice 8-10 weeks old obtained from Harlan animal breeding center were used in the study. Mice were allocated randomly into 6 groups:
Both compounds were administered by gavage once daily during the whole experiment (30 days) at a volume of 0.2 ml/mouse.
The mice were observed daily from the 10th day post-EAE induction and the EAE clinical signs were scored. The scores were recorded on observation cards according to the grades described in Table 5:
The number of sick animals (animals with a score of ≧1 at any point) in each group was summed.
The incidence of disease and the % activity were calculated as follows: [formula] [formula] [formula]
The maximal scores of all mice in each group were summed.
The mean maximal score and the % activity of the group were calculated as follows: [formula] [formula] [formula]
The individual scores (IMS) of each of the mice during the observation period were summed (score 6 will be counted forward).
The GMS of the group and its % activity were calculated as follows: [formula] [formula] [formula]
Their dates of onset were calculated as day of termination +1.

## glatiramer acetate [GA, reference compound]
[1]; GA-blocked mice, day 14
  Reduction of average mean weight: 0.4 g
[1]; day 2 after induction, GA blocking, dose 250 mg/kg
  Weight of EAE mice: 18.6 ± 0.8 g
[2]
  Incidence: 14/15
  Mortality: 0/15
[2]; vs control group mean score
  % Inhibition: 54.6%
